Like-named read-outs stand apart in the source and are kept apart here. Ends that are not written are not given here.
How the values were obtained:
[1] = test system: S. carnosus (CCM 4838T); test: microbe, parasite or virus in culture; format: cell-based, Staphylococcus carnosus; conditions: CCM 4838, 24 h; read-out: Antimicrobial activity (MIC) S. carnosus (CCM 4838T)
Text: (§1) To test antimicrobial activity, all peptides were initially screened, in a broth microdilution assay, against Gram-negative Escherichia coli (TOP10) and Gram-positive Staphylococcus carnosus (CCM 4838T) Biosafety Level 1 (BSL-1) bacteria (Table 2). […] Four other mutants (LP3, LP26, LP36, and LP39) had higher activity than LP1 against E. coli, and two mutants (LP23 and LP32) had higher activity than LP1 against S. carnosus. Six mutants (LP29, LP30, LP31, LP33, LP40, and LP43) were not active against one or both bacteria, even at the highest concentration tested (50 μM).
(§2) Antimicrobial activity against E. coli TOP10 and S. carnosus CCM 4838T was tested using the broth microdilution assay. Bacteria were cultured in MHA Petri dish for 24 h, subcultured in an MHB test tube for 6 h at 37 °C, and diluted to 10^6 CFU/mL (OD600). […] Dilution series was prepared for concentrations 50 to 0.1 μM in a flat-bottom 96-well plate, inoculated with bacteria, and incubated for 24 h at 37 °C. Growth control wells were free from test compounds, and sterility control wells were free from bacteria. Bacterial MIC was determined as the lowest concentration of test compounds that inhibited visible growth of bacteria (i.e., no visible turbidity).

[2] = Calcein dye leakage assay from LUVs; format: biochemical; conditions: P:L 1:100; pH 7.4
Text: To verify the pore-forming mechanism of action of the designed AMPs, we performed a calcein leakage assay. […] These lipid vesicles were used as simple mimics of bacterial membranes.[58] At the lowest tested peptide-to-lipid (P:L) ratio of 1:100 (mol/mol), three mutants (LP18, LP26, and LP40) caused >90% leakage, which was higher than the leakage caused by LP1 (87%). […] At the same concentration, LP23 caused leakage equivalent to that caused by LP1. Other mutants had lower leakage activity. At a higher P:L ratio of 1:50, all the abovementioned mutants caused 100% leakage, equivalent to that caused by LP1.
Pore-forming activity was tested using a dye leakage assay measuring the leakage of self-quenching fluorescent dye calcein from POPC:POPG (1:1 mol/mol) LUVs. DiD was mixed with lipids (1:500 mol/mol), and lipid film was created by evaporating chloroform, followed by 4 h of desiccation. Dried lipid film was dissolved in calcein buffer (35 mM calcein, 25 mM NaH2PO4·H2O and Na2HPO4·7H2O (3:7 mol/mol), 20 mM NaCl, and 1 mM EDTA). After 10 freeze–thaw cycles, the sample was extruded 50 times through a 100 nm pore size polycarbonate membrane filter. Free calcein in solution was removed using a HiTrap Desalting column. The concentrations of LUVs and peptides were adjusted to 0.02 and 0.1 mM, respectively, in PBS (25 mM NaH2PO4·H2O and Na2HPO4·7H2O (3:7 mol/mol), 100 mM NaCl, and 1 mM EDTA). The investigated P/L ratio was from 1:100 to 1:10 (mol/mol). Fluorescence intensity was measured using a HORIBA Scientific Jobin Yvon FluoroLog-3 Modular Spectrofluorometer (USA). Excitation and emission wavelengths were set to 495 and 520 nm, respectively. Triton X-100 10% caused 100% leakage used for normalization.

[3] = Method: (§3) Cytotoxicity against human immortalized keratinocytes HaCaT, human alveolar basal epithelial A549 (derived from adenocarcinoma), and murine macrophages RAW 264.7 was tested using MTT [3-(4,5-dimethylthiazol-2-yl)-2,5-diphenyltetrazolium bromide] assay. Cells were cultured in Dulbecco’s modified Eagle’s medium (DMEM) containing 4 mM glutamine for HaCaT, or 2 mM glutamine for A549 and RAW 264.7 cells, supplemented with 10% heat-inactivated fetal bovine serum (FBS) and antibiotics (0.1 mg/mL penicillin and streptomycin). Nonessential amino acids (NEAA) and sodium pyruvate (1 mM) were added for macrophages. Cell lines were grown in 25 and 75 cm^2 flasks at 37 °C in a humidified atmosphere with 5% CO2. Cells were suspended in DMEM, containing glutamine, NEAA, and sodium pyruvate (as described above), supplemented with 2% FBS, plated in 96-well plates at 4 × 10^4 cells/well, and incubated at 37 °C in a 5% CO2 atmosphere. After overnight incubation, the medium was replaced with fresh DMEM supplemented with peptides at different concentrations: 2, 4, 8, 16, 32, 64, and 128 μM. Negative controls were cells without peptides. After 24 h of peptide treatment at 37 °C in a 5% CO2 atmosphere, medium was replaced with Hank’s buffer (136 mM NaCl, 0.34 mM Na2HPO4, 0.44 mM KH2PO4, 5.4 mM KCl, 4.1 mM NaHCO3, supplemented with 5.5 mM D-glucose) containing 0.5 mg/mL MTT. Mitochondrial dehydrogenases converted soluble yellow dye MTT to insoluble purple formazan. After 4 h of incubation, acidified isopropanol was added to dissolve formazan crystals and measured for OD570 using Tecan microplate reader Infinite M200 (Salzburg, Austria).
[4] = remark: listed apart in the source
Method: as §3, with “After 24 h of peptide treatment at 37 °C in a 5% CO2 atmosphere, medium was replaced with Hank’s buffer (136 mM NaCl, 0.34 mM Na2HPO4, 0.44 mM KH2PO4, 5.4 mM KCl, 4.1 mM NaHCO3, supplemented with 5.5 mM D-glucose) containing 0.5 mg/mL MTT. Mitochondrial dehydrogenases converted soluble yellow dye MTT to insoluble purple formazan.” left out

[5] = test system: E. coli (TOP10); test: Broth microdilution antimicrobial susceptibility assay; format: cell-based, Escherichia coli; conditions: TOP10, 24 h
Text: as §1, §2

[6] = remark: listed apart in the source
Method: as §3

[7] = test system: human red blood cells (HRBCs); conditions: read-out: Hemolysis toxicity (IC50); 1 h incubation
Method: To investigate the toxicity for normal human cells, all peptides were first screened against human red blood cells (HRBCs) using a hemolysis assay (Table 2 and Figure S4).
Hemolysis toxicity was tested against HRBCs. Blood samples, collected from the university hospital, were centrifuged twice at 700 × g and once at 1000 × g for 8 min at 4 °C to obtain erythrocyte pellets. Supernatants were always discarded, and pellets were resuspended in PBS (the same as the antimicrobial susceptibility assay). The final RBC suspension was 0.5% (v/v). Dilution series was prepared for concentrations 50 to 0.1 μM in a V-bottom 96-well plate, followed by the addition of RBC suspension. […] After 1 h of incubation at 37 °C, the well plate was centrifuged at 1000 × g for 10 min at 4 °C. The supernatant, collected in a flat-bottom well plate, was measured for OD415 using Tecan Microplate Reader Infinite F500.

[8] = test system: normal B and T lymphocytes, granulocytes, and monocytes in whole blood; test: Viability by flow cytometric staining in whole blood; format: cell-based, human; conditions: up to the highest tested concentration of 50 μM; 16 h
Method: Finally, we tested the effect of LP1 and LP40 on healthy primary cells in whole blood from a healthy donor (Figure S11).
The whole blood was seeded in a 96-well plate at 200 μL/well and treated with peptides for 16 h. The samples were then stained with anti-CD3 (FITC, Sony), anti-CD14 (APC-Cy7, Sony), and anti-CD19 (PE, Beckman Coulter) antibodies and incubated for 20 min at room temperature in the dark. The cells were then incubated with red blood cell lysis buffer for 10 min at room temperature, centrifuged, resuspended in PBS containing SYTOX Blue Dead Cell Stain (Thermo Fisher Scientific) and measured using a FACSVerse flow cytometer (BD Biosciences).

[9] = single intraperitoneal dose at 10 times the MIC
Method: Neutropenic mice were infected intramuscularly (in the right thigh) with 10^6 cells per mL of Gram-negative A. baumannii (ATCC 19606).
(a) Schematic of the deep thigh infection model in which bacteria are injected intramuscularly at day 4 and peptides are administered intraperitoneally also at day 4 to assess their anti-infective activity. Mice were euthanized 4 days postinfection (day 8). Each group consisted of six mice (n = 6), and the bacterial loads used to infect the mice derived from three different inocula. […] Polymyxin B (0.006 mg/kg) and levofloxacin (0.014 mg/kg) were used as the reference antibiotics. Statistical significance was done using one-way ANOVA followed by Dunnett’s test. Violin plots represent the median, upper quartile, and lower quartile. (c) Mouse weight was monitored to exclude possible toxic effects of the peptides.
Six-week-old female CD-1 mice (obtained from Charles River; stock number 18679700-022) underwent neutropenia induction via two intraperitoneal doses of cyclophosphamide (150 mg kg^–^1) administered with a 72 h interval. One day later, the mice received an intramuscular injection containing A. baumannii ATCC 19606 (10^6 CFU mL^–1) in the right thigh. Bacteria were cultured in LB broth, washed twice with PBS (pH 7.4), and resuspended to the desired concentration. […] Polymyxin B (0.006 mg/kg) and levofloxacin (0.014 mg/kg) were used as the reference antibiotics. Prior to each injection, mice were anesthetized with isoflurane and their respiratory rate and pedal reflexes were monitored. Subsequently, we observed the infection establishment and euthanized the mice. The infected area was excised 4 days postinfection (i.e., 8 days after the beginning of the experiment), homogenized using a bead beater for 20 min (25 Hz), and 10-fold serially diluted for CFU quantification on MacConkey agar plates. Each experimental group comprised three mice. All experiments were conducted blindly, and no animals were excluded from the analysis. Statistical significance was assessed using one-way ANOVA followed by Dunnett’s test on log10-transformed data to mitigate outlier effects; p values are reported for each group, with all groups compared to the untreated control group.

| Substance | MIC [1] | Calcein leakage (%) from LUVs at P:L 1:100 (mol/mol) [2] | IC50 [3] | IC50 [4] | MIC [5] | IC50 [6] | IC50 [7] | Effect on healthy primary cells in whole blood [8] | Change in mouse weight [9] |
| --- | --- | --- | --- | --- | --- | --- | --- | --- | --- |
| KKKKIKKIIKKIFQFINQIDNQIQDIKQNK-NH2 [LP33] | > 50 µM | 28.3 ± 9.3% | < 2 µM | 27 µM | 50 µM | > 128 µM | > 50 µM |  |  |
| HHHHLKKILKKLFQFINQLDNQLQDIHHHH [LP40] |  |  | > 70 µM | > 70 µM |  | > 70 µM |  | no apparent deleterious effect | no significant change in mouse weight |

— publication PMC11345766, “Computational Design of Pore-Forming Peptides with Potent Antimicrobial and Anticancer Activities” (Journal of Medicinal Chemistry, 2024)
